The results in this text go back to patent publication US20070293560A1, “Compounds and compositions” (priority 2006, published 2007).

The IC50 is the concentration that inhibits the measured activity by half. The melting point is the temperature, or range, at which the solid turns liquid.

The target of one series is T1, m-calpain (Homo sapiens, UniProt P17655).
T1 sequence (P17655 1-700): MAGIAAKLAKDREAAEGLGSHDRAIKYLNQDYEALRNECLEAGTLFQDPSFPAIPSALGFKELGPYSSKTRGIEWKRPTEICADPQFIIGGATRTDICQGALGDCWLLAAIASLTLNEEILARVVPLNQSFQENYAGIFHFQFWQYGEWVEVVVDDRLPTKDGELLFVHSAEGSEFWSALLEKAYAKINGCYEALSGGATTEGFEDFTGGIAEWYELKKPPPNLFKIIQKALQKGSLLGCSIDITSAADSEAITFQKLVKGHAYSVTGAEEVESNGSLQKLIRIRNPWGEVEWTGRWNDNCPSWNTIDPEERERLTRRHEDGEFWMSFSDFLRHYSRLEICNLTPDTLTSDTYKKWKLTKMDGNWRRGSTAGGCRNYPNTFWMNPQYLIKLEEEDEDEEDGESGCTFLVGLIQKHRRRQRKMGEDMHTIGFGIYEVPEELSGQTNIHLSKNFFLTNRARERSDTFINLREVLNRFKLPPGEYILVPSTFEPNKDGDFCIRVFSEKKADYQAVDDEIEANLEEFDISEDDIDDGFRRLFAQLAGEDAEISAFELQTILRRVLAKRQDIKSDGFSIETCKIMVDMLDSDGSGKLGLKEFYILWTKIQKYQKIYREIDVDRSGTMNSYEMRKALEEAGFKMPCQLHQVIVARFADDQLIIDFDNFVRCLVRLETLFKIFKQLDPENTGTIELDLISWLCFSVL
T1 sequence (P04632 1-268 partner): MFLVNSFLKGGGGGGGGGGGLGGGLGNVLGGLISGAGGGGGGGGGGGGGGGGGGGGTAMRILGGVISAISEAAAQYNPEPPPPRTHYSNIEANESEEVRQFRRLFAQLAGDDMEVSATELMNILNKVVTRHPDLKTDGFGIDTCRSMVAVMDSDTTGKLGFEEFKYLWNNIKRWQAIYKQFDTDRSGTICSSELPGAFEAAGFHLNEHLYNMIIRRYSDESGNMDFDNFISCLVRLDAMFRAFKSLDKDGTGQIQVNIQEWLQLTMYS
Put plainly: m-calpain inhibition, fluorescence-based assay with BODIPY-casein substrate. It counts as biochemical. On the procedure:
The peptidic alcohol 3 and aldehyde 6 were assayed against m-calpain using a BODIPY-casein substrate in the fluorescence-based assay procedure of V. F. Thompson, S. Saldana, J. Cong and D. E. Goll, Anal. Biochem. 2000, 279, 170.
The results of the enzyme inhibition assay for 3 and 6 are graphically represented in FIGS. 1 and 2, respectively.

The next series has as its system adult ovine lens. Briefly: In vitro lens culture assay, calcium induced cataract. It counts as cell-based. The settings on record: ovine lens preincubated with 0.8 μM for 2 hours, then 5 mM calcium chloride for 20 hours. The protocol:
The ability of the peptidic aldehyde 6 to prevent the formation of a calcium induced cataract in adult ovine lens was assayed using the procedure of J. Sanderson, J. M. Marciantonio and G. A. Duncan, Invest. Opth. Vis. Sci. 2000, 41, 2255. Three pairs of lenses were tested. One lens from each pair was preincubated with [0.8 μM] 6 for 2 hours while the other was incubated in EMEM-culture media at 35° C., 5% CO2. Then 5 mM calcium chloride was added onto both the inhibitor treated lens and the other lens, and both lenses were then incubated for 20 hours. One pair of lenses was photographed when the assay had been completed.

Series [1] in a line: Detection of 6 in ovine body parts by LCMS after ointment application to one eye. Format: in vivo, lamb. The settings on record: for Compound 6 detected: 1% ointment 50 mg three times in one day. The protocol:
(§1) An ointment (50 mg) comprising 1% of the peptidic aldehyde 6 was applied to one eye of a lamb, three times in one day.
Various body parts were assayed for trace amounts of 6 by LCMS using a method similar to that described by A. Maltese and C. Bucolo, Biomedical Chromatography 2000, 16, 274. A rapid high-performance liquid chromatographic method using a C18 reversed-phase column with UV detection at 254 nm was used for the analysis of 6 in ovine samples. A water solution containing 2% ZnSO4.7H2O was used to deproteinise the samples. The mobile phase consisted of CH3CN and H2O containing 0.05% TFA.

A further series concerns cataracts. Briefly: In vivo cataract progression in lambs, ointment on the eye. Details: species or system lamb. The settings on record: 1% ointment (25 mg) twice daily, 24 lambs. The protocol: An ointment (25 mg) comprising 1% of the peptidic aldehyde 6 was applied twice daily to the left eye of 24 lambs for three months starting when they were two to three months old. The progression of cataracts was determined by a veterinary opthalmologist with a slit-lamp microscope.

The nature of series [2]: Ovine cornea penetration, modified Ussing chamber and LCMS. It counts as in vitro ADME. The settings on record: adult ovine cornea, Ussing chamber, 37° C., 3 hours, LCMS. On the procedure:
The peptidic aldehyde 6 was assayed for ovine cornea penetration using a modified Ussing chamber and LCMS based on the procedure of Youn Bok Chung, Kun Han and Vincent H. L. Lee, Pharmaceutical Research, 2000, 15, 1882. Compound 6 (3.5 mg) was dissolved in buffer A (5 mL) and added to the epithelial side a modified Ussing chamber with a pre-mounted adult ovine cornea. Buffer B (5 mL) was added to the endothelial side of the chamber and the whole chamber was incubated 37° C. for 3 hours, 5% CO2. Samples were taken from both sides of the chamber at time=0 and 180 minutes. The samples were analysed for compound 6 using LCMS.

Series [3] in a line: In vivo eye irritation in a lamb after ointment application. The settings on record: 1% ointment (50 mg) applied to one eye of a lamb, three times in one day. The protocol:
as §1

With `CC(C)C[C@@H](CO)NC(=O)[C@@H](NC(=O)c1ccc(C=O)s1)C(C)C` [Compound 5, 5-Formyl-thiophene-2-carboxylic acid [(S)-1-((S)-1-hydroxymethyl-3-methyl-butylcarbamoyl)-2-methyl-propyl]-amide], the IC50 against m-calpain was found to be 30.4 µM.

Take `CC(C)C[C@@H](C=O)NC(=O)[C@@H](NC(=O)c1ccc(C=O)[nH]1)C(C)C` [Compound 6, 5-Formyl-1H-pyrrole-2-carboxylic acid [(S)-1-((S)-1-formyl-3-methyl-butylcarbamoyl)-2-methyl-propyl]-amide]: the “Inhibition of cataract formation” value in the series with adult ovine lens is listed as “yes”. Also, the Amount detected came to 8 ng in series [1] (Aqueous humour (treated eye)), 6 ng in series [1] (Lens (treated eye)) and 4 ng in series [1] (Vitreous humour (treated eye)). Moreover, the “Compound 6 detected” value in series [1] (Aqueous humour (treated eye)) is reported as “yes”; in series [1] (Kidney), “no”; in series [1] (Lens (treated eye)) it was “yes”; in series [1] (Liver), “no”; in series [1] (Plasma) it was “no”; in series [1] (Vitreous humour (treated eye)), “yes”. For the same molecule, in the series with cataracts (first month following treatment (p<0.05)), the “Cataract progression, treated left eye” value was “significantly slower cataract progression”. Also, the “Cataract progression, treated versus untreated eyes” value with cataracts (following two months) is “no significant differences”. In series [2], the Cornea penetration entry is listed as “yes”. For the same molecule, the IC50 at m-calpain was determined as 0.03 µM. Besides, in series [3], the Eye irritation entry was “No sign of irritation”.

`CC(C)C[C@@H](CO)NC(=O)[C@@H](NC(=O)c1ccc(C=O)o1)C(C)C` [Compound 7, 5-Formyl-furan-2-carboxylic acid [(S)-1-((S)-1-hydroxymethyl-3-methyl-butylcarbamoyl)-2-methyl-propyl]-amide] gave a melting point of 46 to 48 °C.

For `CC(C)C[C@@H](CO)NC(=O)[C@@H](NC(=O)c1ccc(C=O)o1)C(C)C` [Compound 4, 5-Formyl-furan-2-carboxylic acid [(S)-1-((S)-1-hydroxymethyl-3-methyl-butylcarbamoyl)-2-methyl-propyl]-amide], on m-calpain, the half-inhibitory concentration (IC50) worked out at 120 µM.

`CC(C)C[C@@H](CO)NC(=O)[C@@H](NC(=O)c1ccc(C=O)[nH]1)C(C)C` [Compound 3, 5-Formyl-1H-pyrrole-2-carboxylic acid [(S)-1-((S)-1-hydroxymethyl-3-methyl-butylcarbamoyl)-2-methyl-propyl]-amide] returned a half-maximal inhibitory concentration (IC50) on m-calpain of 0.97 µM.
